The target of one data set is hERG (KCNH2) (Homo sapiens, UniProt Q12809). Put plainly: Inhibition of human ERG at 10 uM by IonWorks assay. In general terms: The patch-clamp technique gives a direct electrical read-out from membranes.
Data set [1] deals with Histamine H3 receptor (Homo sapiens, UniProt Q9Y5N1). Put plainly: Displacement of [3H]-(R)-alpha-methylhistamine from human H3 receptor expressed in HEK293T cells after 120 mins by scintillation counting. The format is cell-based, HEK-293T. Background: Loss of bound radioactivity is the signal in a displacement assay; it reports binding, not function.
Chain of Histamine H3 receptor (Homo sapiens, UniProt Q9Y5N1) (Q9Y5N1 whole entry): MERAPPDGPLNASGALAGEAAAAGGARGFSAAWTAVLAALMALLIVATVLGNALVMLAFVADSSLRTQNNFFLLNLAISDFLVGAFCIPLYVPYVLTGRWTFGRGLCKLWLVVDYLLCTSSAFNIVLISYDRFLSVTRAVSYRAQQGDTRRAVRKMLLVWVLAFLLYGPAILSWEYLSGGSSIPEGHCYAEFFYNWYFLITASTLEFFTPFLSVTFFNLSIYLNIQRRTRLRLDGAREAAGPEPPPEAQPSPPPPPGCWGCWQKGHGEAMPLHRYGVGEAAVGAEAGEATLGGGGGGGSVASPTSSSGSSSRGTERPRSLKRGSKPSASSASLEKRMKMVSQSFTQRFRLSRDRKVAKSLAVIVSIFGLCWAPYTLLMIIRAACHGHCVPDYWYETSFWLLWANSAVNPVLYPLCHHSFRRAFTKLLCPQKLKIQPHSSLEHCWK
Data set [2] concerns the target Voltage-gated inwardly rectifying potassium channel KCNH2 (Homo sapiens, UniProt Q12809). Put plainly: Inhibition of human ERG by IonWorks assay.
Data set [3] has as its target Histamine H3 receptor (Rattus norvegicus, UniProt Q9QYN8). Put plainly: Displacement of [3H]-(R)-alpha-methylhistamine from rat H3 receptor expressed in HEK293T cells after 120 mins by scintillation counting. It is filed as cell-based, HEK-293T.

Chain of Histamine H3 receptor (Rattus norvegicus, UniProt Q9QYN8) (Q9QYN8 whole entry): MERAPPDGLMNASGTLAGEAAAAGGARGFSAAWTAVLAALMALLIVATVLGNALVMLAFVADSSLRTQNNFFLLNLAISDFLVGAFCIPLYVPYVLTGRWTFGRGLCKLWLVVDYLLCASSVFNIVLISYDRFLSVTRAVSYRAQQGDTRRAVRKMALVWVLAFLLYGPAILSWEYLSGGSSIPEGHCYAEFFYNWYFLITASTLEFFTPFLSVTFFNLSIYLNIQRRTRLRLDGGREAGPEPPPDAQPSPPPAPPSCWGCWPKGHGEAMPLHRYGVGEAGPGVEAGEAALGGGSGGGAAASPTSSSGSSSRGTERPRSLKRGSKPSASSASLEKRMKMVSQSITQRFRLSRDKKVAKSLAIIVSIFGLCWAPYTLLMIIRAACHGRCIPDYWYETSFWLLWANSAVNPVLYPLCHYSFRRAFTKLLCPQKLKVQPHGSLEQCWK
Chain of hERG (KCNH2) (Q12809 whole entry): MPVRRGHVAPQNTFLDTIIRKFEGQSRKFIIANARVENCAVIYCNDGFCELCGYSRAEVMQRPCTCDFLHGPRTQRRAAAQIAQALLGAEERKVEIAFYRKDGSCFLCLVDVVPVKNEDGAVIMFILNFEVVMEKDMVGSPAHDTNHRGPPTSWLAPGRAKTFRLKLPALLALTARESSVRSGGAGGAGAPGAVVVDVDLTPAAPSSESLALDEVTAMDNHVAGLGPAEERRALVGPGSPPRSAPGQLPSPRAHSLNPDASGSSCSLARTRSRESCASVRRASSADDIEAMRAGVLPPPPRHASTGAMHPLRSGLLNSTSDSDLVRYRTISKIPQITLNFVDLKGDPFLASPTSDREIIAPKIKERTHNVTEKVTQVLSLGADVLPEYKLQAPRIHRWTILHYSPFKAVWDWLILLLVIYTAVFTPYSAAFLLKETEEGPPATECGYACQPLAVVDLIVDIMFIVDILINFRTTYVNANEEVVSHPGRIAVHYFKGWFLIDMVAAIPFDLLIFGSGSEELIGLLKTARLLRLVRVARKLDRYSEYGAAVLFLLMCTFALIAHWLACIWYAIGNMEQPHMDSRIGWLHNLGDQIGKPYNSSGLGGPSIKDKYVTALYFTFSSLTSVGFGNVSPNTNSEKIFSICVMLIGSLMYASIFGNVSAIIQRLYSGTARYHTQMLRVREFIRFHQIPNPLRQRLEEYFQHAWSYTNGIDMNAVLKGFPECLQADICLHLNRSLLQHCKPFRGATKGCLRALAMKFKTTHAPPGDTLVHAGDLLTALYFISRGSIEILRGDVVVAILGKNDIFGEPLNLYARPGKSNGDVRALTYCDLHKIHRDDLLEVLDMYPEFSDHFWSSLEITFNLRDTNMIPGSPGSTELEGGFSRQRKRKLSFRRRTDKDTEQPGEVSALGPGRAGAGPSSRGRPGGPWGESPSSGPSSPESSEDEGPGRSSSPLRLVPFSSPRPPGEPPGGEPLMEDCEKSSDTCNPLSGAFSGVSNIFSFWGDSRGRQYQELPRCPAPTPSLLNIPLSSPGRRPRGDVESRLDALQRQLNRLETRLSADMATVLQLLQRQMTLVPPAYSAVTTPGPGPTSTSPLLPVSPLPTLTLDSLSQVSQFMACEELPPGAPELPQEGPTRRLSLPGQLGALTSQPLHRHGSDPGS
Chain of Voltage-gated inwardly rectifying potassium channel KCNH2 (Q12809 whole entry): as above

One may read the inhibition as the percentage by which the read-out fell short of the control. For orientation: Ki means a dissociation constant, usually derived from enzyme kinetics or from competition with a known ligand. Low values mean a stronger hold on the target, high ones a looser hold on the target. With `O=C1c2ccc(-c3ccncc3)cc2CCN1CCN1CCCC1`, the inhibition at 10 µM against hERG (KCNH2) is 93%. The same compound yielded a Ki at Histamine H3 receptor [1] of 7.8 nM.

By IC50 is commonly meant the concentration at which inhibition is half-maximal. As for `C[C@@H]1CCCN1CCN1CCc2cc(-c3ccc(C#N)cc3)ccc2C1=O`, 140 nM corresponded to half-maximal inhibition in data set [2] (IC50). Besides, the Ki on Histamine H3 receptor [3] was determined as 5.8 nM.

`C[C@@H]1CCCN1CCN1CCc2cc(-c3ccc(F)cc3)ccc2C1=O` had a half-maximal inhibitory concentration (IC50) in data set [2] of 300 nM. In addition, the Ki came to 1.2 nM at Histamine H3 receptor [1] and 23 nM on Histamine H3 receptor [3].

Consider `C[C@H]1CCCN1CCN1CCc2cc(-c3ccc(C#N)cc3)ccc2C1=O`, for which the inhibition constant (Ki) on Histamine H3 receptor [3] came out at 49 nM.

On hERG (KCNH2), `C[C@@H]1CCCN1CCN1CCc2cc(Oc3ccc(C#N)cc3)ccc2C1=O` displayed an inhibition at 10 µM of 95%. For the same compound, at Histamine H3 receptor [1], the inhibition constant (Ki) worked out at 0.6 nM.

With `O=C1c2ccc(-c3cccc(C(F)(F)F)c3)cc2CCN1CCN1CCCC1`, the values for the inhibitory constant (Ki) on Histamine H3 receptor [1] and at Histamine H3 receptor [3] were 6.4 nM and 182 nM, respectively.

For `CCNC(=O)c1ccc(-c2ccc3c(c2)CCN(CCN2CCCC2)C3=O)cc1`, the inhibitory constant (Ki) at Histamine H3 receptor [1] was 1.2 nM.

Turning to `C[C@H]1CCCN1CCN1CCc2cc(-c3ccc(F)cc3)ccc2C1=O`, the inhibitory constant (Ki) at Histamine H3 receptor [1] came to 12.7 nM; at Histamine H3 receptor [3], 110 nM.

Take `N#Cc1cccc(-c2ccc3c(c2)CCN(CCN2CCCC2)C3=O)c1`: the results for the inhibitory constant (Ki) on Histamine H3 receptor [1] and on Histamine H3 receptor [3] were 3.4 nM and 73 nM, respectively.

For the compound `O=C(c1ccc(-c2ccc3c(c2)CCN(CCN2CCCC2)C3=O)cc1F)N1CCCC1`, the IC50 in data set [2] worked out at 8800 nM. This compound came in with a Ki at Histamine H3 receptor [1] of 1.3 nM.

As to `CNC(=O)c1ccc(-c2ccc3c(c2)CCN(CCN2CCCC2)C3=O)c(F)c1`, at Histamine H3 receptor [1], affinity was put at a Ki of 1.7 nM.

For the compound `O=C1c2ccc(-c3ccccc3)cc2CCN1CCN1CCCC1`, the inhibition constant (Ki) on Histamine H3 receptor [1] stood at 11.4 nM; on Histamine H3 receptor [3] it was 145 nM.

Compound `CN(C)C(=O)c1ccc(-c2ccc3c(c2)CCN(CCN2CCCC2)C3=O)c(F)c1` showed an IC50 in data set [2] of 32500 nM. Also, the Ki on Histamine H3 receptor [1] worked out at 3.1 nM.

On to `C[C@@H]1CCCN1CCN1CCc2cc(Oc3ccc(C#N)nc3)ccc2C1=O`, for which the inhibition at 10 µM at hERG (KCNH2) was determined as 99%. In addition, at Histamine H3 receptor [1], affinity was put at a Ki of 0.3 nM.

At Histamine H3 receptor [1], `CC(C)NC(=O)c1ccc(-c2ccc3c(c2)CCN(CCN2CCCC2)C3=O)cc1` gave a Ki of 1.9 nM.

Turning to `N#Cc1ccc(-c2ccc3c(c2)CCN(CCN2CCCC2)C3=O)cc1`, the Ki at Histamine H3 receptor [1] was determined as 3.9 nM; at Histamine H3 receptor [3] it was 25 nM.

Regarding `N#Cc1ccc(-c2ccc3c(c2)CCN(CCCN2CCCC2)C3=O)cc1`, the results for the inhibition constant Ki at Histamine H3 receptor [1] and on Histamine H3 receptor [3] were 6.9 nM and 270 nM, respectively.

As for `O=C1c2ccc(-c3ccc(OC(F)(F)F)cc3)cc2CCN1CCN1CCCC1`, the Ki on Histamine H3 receptor [1] was 14.9 nM; on Histamine H3 receptor [3], 178 nM.

In the case of `O=C(c1ccc(-c2ccc3c(c2)CCN(CCN2CCCC2)C3=O)cc1Cl)N1CCCC1`, in data set [2], the IC50 was 9300 nM. On Histamine H3 receptor [1], the Ki is 1.6 nM.

With `O=C1c2ccc(-c3cc(F)cc(F)c3)cc2CCN1CCN1CCCC1`, the Ki at Histamine H3 receptor [1] is 9 nM; on Histamine H3 receptor [3], 146 nM.

Regarding `O=C1c2ccc(-c3cccc(OC(F)(F)F)c3)cc2CCN1CCN1CCCC1`, the inhibition constant (Ki) amounted to 28.4 nM on Histamine H3 receptor [1] and 276 nM on Histamine H3 receptor [3].

At hERG (KCNH2), `NC(=O)c1ccc(-c2ccc3c(c2)CCN(CCN2CCCC2)C3=O)cc1` displayed an inhibition at 10 µM of 14%. Further, the affinity at Histamine H3 receptor [1], expressed as Ki, was 6 nM.

On Histamine H3 receptor [1], `CNC(=O)c1ccc(-c2ccc3c(c2)CCN(CCN2CCCC2)C3=O)cc1` came in with an inhibitory constant (Ki) of 1.3 nM.

For `C[C@@H]1CCCN1CCN1Cc2cc(-c3ccc(C#N)cc3)ccc2C1=O`, the inhibition at 10 µM at hERG (KCNH2) was found to be 98%. The same compound registered a Ki on Histamine H3 receptor [1] of 23.8 nM.

On to `O=C1c2ccc(-c3ccccc3F)cc2CCN1CCN1CCCC1`, for which the figures for the Ki at Histamine H3 receptor [1] and at Histamine H3 receptor [3] were 14.1 nM and 174 nM, respectively.

On to `O=C(c1ccc(-c2ccc3c(c2)CCN(CCN2CCCC2)C3=O)c(F)c1)N1CCCC1`, for which, in data set [2], half-maximal inhibition (IC50) was put at 11300 nM. The Ki on Histamine H3 receptor [1] amounted to 3.2 nM.

Take `N#Cc1ccc(-c2ccc3c(c2)CCN(CCCN2CCCCC2)C3=O)cc1`: the Ki on Histamine H3 receptor [1] came out at 18 nM; on Histamine H3 receptor [3] it was 153 nM.

As to `O=C(NC1CCC1)c1ccc(-c2ccc3c(c2)CCN(CCN2CCCC2)C3=O)cc1`, the IC50 in data set [2] was found to be 2500 nM. For the same compound, the affinity at Histamine H3 receptor [1], expressed as Ki, was 2.1 nM.

With `O=C1c2ccc(-c3cccc(F)c3)cc2CCN1CCN1CCCC1`, the results for the Ki at Histamine H3 receptor [1] and on Histamine H3 receptor [3] were 11.6 nM and 164 nM, respectively.

Turning to `O=C1c2ccc(-c3ccc(F)cc3)cc2CCN1CCN1CCCC1`, the Ki on Histamine H3 receptor [1] came to 11 nM; at Histamine H3 receptor [3] it was 86 nM.

As for `O=C1c2ccc(-c3ccc(C(F)(F)F)cc3)cc2CCN1CCN1CCCC1`, the values for the Ki on Histamine H3 receptor [1] and at Histamine H3 receptor [3] were 9.3 nM and 101 nM, respectively.

For `O=C1c2ccc(-c3ccc(F)cc3F)cc2CCN1CCN1CCCC1`, the inhibitory constant (Ki) was found to be 8.1 nM at Histamine H3 receptor [1] and 153 nM on Histamine H3 receptor [3].

In turn, `O=C1c2ccc(-c3ccc(F)cc3)cc2CCN1CCN1CCCCC1` gave a Ki at Histamine H3 receptor [1] of 7.8 nM. This lies in the single-digit nanomolar range.

Turning to `O=C(c1ccc(-c2ccc3c(c2)CCN(CCN2CCCC2)C3=O)cc1)N1CCCC1`, the inhibition constant (Ki) at Histamine H3 receptor [1] stood at 2.4 nM.

On to `O=C1c2ccc(-n3cnc4ccccc43)cc2CCN1CCN1CCCC1`, for which the values for the Ki on Histamine H3 receptor [1] and on Histamine H3 receptor [3] were 0.8 nM and 174 nM, respectively.

`C[C@@H]1CCCN1CCN1CCc2ccc(-c3ccc(C#N)cc3)cc2C1=O` gave an inhibition at 10 µM at hERG (KCNH2) of 98%. The compound also gave an inhibitory constant (Ki) on Histamine H3 receptor [1] of 2.4 nM.

At hERG (KCNH2), `O=C(c1ccc(-c2ccc3c(c2)CCN(CCN2CCCC2)C3=O)cc1)C1CC1` registered an inhibition at 10 µM of 65%. The affinity at Histamine H3 receptor [1] corresponds to a Ki of 6 nM.

For the compound `O=C1c2ccc(-c3ccc(F)c(F)c3)cc2CCN1CCN1CCCC1`, the inhibition constant Ki on Histamine H3 receptor [1] was found to be 7.7 nM; at Histamine H3 receptor [3], 82 nM.

For `CNC(=O)c1ccc(-c2ccc3c(c2)CCN(CCN2CCC[C@H]2C)C3=O)cc1`, the IC50 in data set [2] turned out to be 17000 nM. Moreover, the inhibition constant (Ki) at Histamine H3 receptor [1] worked out at 1 nM.

For `O=C(NC1CC1)c1ccc(-c2ccc3c(c2)CCN(CCN2CCCC2)C3=O)cc1`, in data set [2], the 50% inhibitory concentration (IC50) was 11000 nM. Further, the affinity on Histamine H3 receptor [1] corresponds to a Ki of 2.7 nM.

In turn, `C[C@@H]1CCCN1CCN1CCc2c(cccc2-c2ccc(C#N)cc2)C1=O` came in with an inhibition at 10 µM at hERG (KCNH2) of 96%. The affinity at Histamine H3 receptor [1] corresponds to a Ki of 21.7 nM.

The compound `C[C@@H]1CCCN1CCN1CCc2cc(Oc3ccc(C#N)cn3)ccc2C1=O` came in with an inhibition at 10 µM against hERG (KCNH2) of 89%. On Histamine H3 receptor [1], this compound displayed an inhibition constant Ki of 1.2 nM.

The values are drawn from ChEMBL document CHEMBL2029265, “2-(Pyrrolidin-1-yl)ethyl-3,4-dihydroisoquinolin-1(2H)-one derivatives as potent and selective histamine-3 receptor antagonists” (J Med Chem, 2012).
